# Source: patent US9499554B2, “Anti-influenza compositions and methods” (priority 2013, dated 2016)
# Like-named read-outs stand apart in the source and are kept apart here. Marks after values point to notes of the source that are not given here.
# How the values were obtained:
# [1] = system: Influenza A H1N1 CA/04/2009 (Pandemic H1N1); test: microbe, parasite or virus in culture; format: cell-based
# [2] = system: Influenza A H3N2 Brisbane/10/2007; test: microbe, parasite or virus in culture; format: cell-based
# [3] = system: Influenza A H5N1 VN/1203/2004 Hybrid (on H1N1 backbone); test: microbe, parasite or virus in culture; format: cell-based
# Influenza B Florida [4] = test: microbe, parasite or virus in culture; format: cell-based
# [5] = system: Parainfluenza 3 14702 (MA-104 cells); test: organism not typed; format: cell-based
# [6] = system: Influenza A H1N1 CA/04/2009 (Pandemic H1N1); test: microbe, parasite or virus in culture; format: cell-based; conditions: for EC50: Influenza A virus
# [7] = system: Influenza A H3N2 Brisbane/10/2007; test: microbe, parasite or virus in culture; format: cell-based; conditions: for EC50: Influenza A virus
# [8] = system: Influenza A H5N1 VN/1203/2004 Hybrid (on H1N1 backbone); test: microbe, parasite or virus in culture; format: cell-based; remark: listed apart in the source
# Influenza B Florida [9] = test: microbe, parasite or virus in culture; format: cell-based; conditions: for EC50: Influenza B virus
# [10] = system: Parainfluenza 3 14702 (MA-104 cells); test: organism not typed; format: cell-based; remark: listed apart in the source
# A/CA/27/2007 (H1N1) = test: microbe, parasite or virus in culture; format: cell-based; conditions: Influenza A virus, H1N1, MDCK, read-out: EC50, antiviral activity in MDCK cells
# A/Vic/3/75 (H3N2) = test: microbe, parasite or virus in culture; format: cell-based; conditions: Influenza A virus, H3N2, MDCK, read-out: EC50, antiviral activity in MDCK cells
# influenza viruses [11] = test: organism not typed; format: cell-based; conditions: read-out: EC50 values against the influenza viruses by visual assay
# influenza viruses [12] = test: organism not typed; format: cell-based; conditions: read-out: EC50 values against the influenza viruses as measured by NR assay
# [13] = system: influenza virus H3N2 (A/Victoria/3/75); test: microbe, parasite or virus in culture; format: cell-based; conditions: H3N2, MDCK; 72 hrs; read-out: Percent Inhibition of Cytopathic Effect
# [14] = system: H3N2 virus (A/Victoria/3/75); set-up: species or system Balb/C mice; conditions: mouse, in vivo
# [15] = system: H3N2 virus (A/Victoria/3/75); set-up: species or system Balb/C mice; conditions: mouse, in vivo, po
# MDCK cells [16] = conditions: dog
# MA-104 cells [17] = conditions: African green monkey
# MDCK cells [18] = conditions: dog; remark: listed apart in the source
# MA-104 cells [19] = conditions: African green monkey; remark: listed apart in the source
# in vivo = conditions: female, Balb/c, mouse, po, 100 mg/kg
smiles,measurement,setting,value
"Nc1ncnc2c([C@@H]3N[C@H](CO)[C@@H](O)[C@H]3O)c[nH]c12 [compound 1, (2S,3S,4R,5R)-2-(4-Amino-5H-pyrrolo[3,2-d]pyrimidin-7-yl)-5-(hydroxymethyl)pyrrolidine-3,4-diol]","SI, Visual CPE Assay",[1],120
same,EC50,"[1]; Influenza A virus, H1N1, read-out: EC50, Visual CPE Assay",1.8 µg/mL
same,"SI, Visual CPE Assay",[2],140
same,EC50,"[2]; Influenza A virus, H3N2, read-out: EC50, Visual CPE Assay",1.8 µg/mL
same,"SI, Visual CPE Assay",[3],>1600
same,"SI, Visual CPE Assay",Influenza B Florida [4],290
same,EC50,"Influenza B Florida [4]; Influenza B virus, Influenza B Florida, read-out: EC50, Visual CPE Assay",1.8 µg/mL
same,"SI, Visual CPE Assay",[5],7.1
same,EC50,"[5]; MA104, read-out: EC50, Visual CPE Assay",14 µg/mL
same,"SI, Neutral Red Uptake Assay",[6],120
same,EC50,"[6]; H1N1, MDCK, read-out: EC50, antiviral activity in MDCK cells",1.8 µg/mL
same,EC50,"[6]; H1N1, read-out: EC50, Neutral Red Uptake Assay",1.8 µg/mL
same,"SI, Neutral Red Uptake Assay",[7],79
same,EC50,"[7]; H3N2, MDCK, read-out: EC50, antiviral activity in MDCK cells",5.6 µg/mL
same,EC50,"[7]; H3N2, read-out: EC50, Neutral Red Uptake Assay",5.6 µg/mL
same,"SI, Neutral Red Uptake Assay",[8],130
same,"SI, Neutral Red Uptake Assay",Influenza B Florida [9],38
same,EC50,"Influenza B Florida [9]; B/Florida, MDCK cells, Table 2, read-out: EC50, antiviral activity in MDCK cells",1.8 µg/mL
same,EC50,"Influenza B Florida [9]; Influenza B Florida, read-out: EC50, Neutral Red Uptake Assay",1.8 µg/mL
same,"SI, Neutral Red Uptake Assay",[10],52
same,EC50,"[10]; MA104, read-out: EC50, Neutral Red Uptake Assay",10 µg/mL
same,EC50,A/CA/27/2007 (H1N1),0.66 µg/mL
same,EC50,A/Vic/3/75 (H3N2),4 µg/mL
same,EC50,influenza viruses [11],0.63 to 1.8 µg/mL
same,EC50,influenza viruses [12],1.8 to 5.6 µg/mL
same,inhibition at 1.8 µM,[13],1.6 ± 6.1%
same,inhibition at 7.8 µM,[13],25.8 ± 4.8%
same,Mean day to death (Mean ± SEM),[14],>16 days
same,Survival/Total,[14],10/10*
same,effect on survival and weight loss in infected mice,[14],improves the survival and weight loss
same,effect on survival and weight loss in infected mice,[15],improves the survival and weight loss
same,Mean day to death (Mean ± SEM),[15]; 30 mg/kg/day,>16 days
same,Mean weight change (grams ± SEM) Day 9,[15]; 30 mg/kg/day,−1.58 ± 0.32 grams
same,Survival/Total,[15]; 30 mg/kg/day,10/10*
same,Mean day to death (Mean ± SEM),[15]; 100 mg/kg/day,>16 days
same,Survival/Total,[15]; 100 mg/kg/day,10/10*
same,Mean day to death (Mean ± SEM),[15]; 300 mg/kg/day,>16 days
same,Mean weight change (grams ± SEM) Day 9,[15]; 300 mg/kg/day,0.66 ± 0.23 grams
same,Survival/Total,[15]; 300 mg/kg/day,10/10*
same,"IC50 (50% cytotoxic dose), Visual CPE Assay",MDCK cells [16],>1000 µg/mL
same,"IC50 (50% cytotoxic dose), Visual CPE Assay",MA-104 cells [17],100 µg/mL
same,"IC50 (50% cytotoxic dose), Neutral Red Uptake Assay",MDCK cells [18],130 µg/mL
same,"IC50 (50% cytotoxic dose), Neutral Red Uptake Assay",MA-104 cells [19],52 µg/mL
same,concentration at 0.17 hr,in vivo,607 ± 61 ng/mL
same,concentration at 0.5 hr,in vivo,910 ± 122 ng/mL
same,concentration at 1 hr,in vivo,342 ± 122 ng/mL
same,concentration at 3 hr,in vivo,89.7 ± 8.5 ng/mL
same,concentration at 5 hr,in vivo,94.2 ± 6.4 ng/mL
same,concentration at 24 hr,in vivo,50.5 ± 8.9 ng/mL
